Patent publication US20220211821A1, “COMPOSITION FOR PREVENTING OR TREATING OBESITY, COMPRISING PHOSPHOLIPASE A2 AS ACTIVE INGREDIENT” (UNIVERSITY-INOUSTRY COOPERATION GROUP OF KYUNG HEE …, priority 2019, published 2022)

How the values were obtained:
[1] = system: mice of the HFD group; assay: Comparison with mellitin: body weight changes in HFD mice; assay type: in vivo; conditions: 0.5 mg/kg intraperitoneally for 16 weeks, vs control group (PBS)
Experimental: In order to investigate a component having an excellent obesity inhibitory effect among the components of bee venom, mellitin, which is the most abundant in bee venom, was compared with bvPLA2, which is PLA2 derived from bee venom.
More specifically, the mice of the ND and HFD groups were intraperitoneally administered with PBS, mellitin, and bvPLA2 at 0.5 mg/kg each for 16 weeks, and then the body weight changes were compared every day.

[2] = system: mice with HFD-induced obesity; assay: Adipose tissue weight and body weight of mice with HFD-induced obesity; assay type: in vivo, C57BL/6 mice
Experimental: (§1) Male C57BL/6 mice (5 weeks old; weight 18-20 g) and CD206−/− mice (B6.129P2-MRC1tm1Mnz/J) were purchased from Jackson Laboratory (Bar Harbor, Me.). After acclimation for one week, the mice were fed a normal diet (ND, 10 kcal %) or a high-fat diet (HFD, 60 kcal %) for 15 weeks. Thereafter, the mice were intraperitoneally injected with PBS or bvPLA2 (0.5 mg/kg) starting on week 5 and continuing for 11 weeks.
The obesity amelioration effect of bvPLA2 was evaluated through changes in adipose tissue weight and body weight of mice with HFD-induced obesity.
More specifically, the […] mice were fed ND or HFD for 15 weeks. After 4 weeks of ND or HFD feeding, the mice were injected with PLA2 or PBS, starting on week 5 (FIG. 1A). Thereafter, the adipose tissue and body weight were measured according to the injection or non-injection of bvPLA2.

[3] = system: CD206-deficient (CD206-/-) mice lacking the mannose receptor; assay: Body weight and adipose tissue weight of CD206-deficient mice on HFD; assay type: in vivo; conditions: HFD+PLA2 vs HFD group
Experimental: as §1
In order to investigate the immunoregulatory effect of bvPLA2, CD206-deficient (CD206−/−) mice lacking the mannose receptor were used.
More specifically, the body weight and adipose tissue weight of CD206−/− mice were measured by way of the same method as the above experimental schedule (FIG. 1A).

[4] = system: obesity-induced mice, regulatory T cell depletion; assay: Body weight of obesity-induced mice with regulatory T cell depletion (anti-mouse CD25 PC61) or rat IgG control; assay type: in vivo
Experimental: Anti-mouse CD25 (clone: PC61) was produced from hybridomas obtained from the American Type Culture Collection (ATCC; Manassas, Va., USA), and the mice were intraperitoneally injected with anti-mouse CD25 or rat IgG (Sigma-Aldrich) every 3 days for 11 weeks.
In order to investigate the correlation between bvPLA2 and regulatory T cells, regulatory T cell depletion was performed by injecting anti-mouse CD25 antibody (clone PC61) into mice every 3 days. Rat IgG was used as a control.

[5] = system: liver and kidney tissues from the mice; assay: H&E staining of liver and kidney: HFD-induced hepatic steatosis and kidney damage; assay type: in vivo
Experimental: (§2) Liver and kidney tissues were fixed in 4% paraformaldehyde overnight, dehydrated, embedded in paraffin, and sectioned to a thickness of 4 μm. The sections were deparaffinized with xylene and then hydrated again with 100%, 90%, 80%, and 70% ethanol. The hydrated sections were washed with tap water and stained with a hematoxylin solution for 5 minutes. Thereafter, the stained sections were immersed in 1% acid alcohol, and then stained again in an eosin solution for 3 minutes. Thereafter, for mounting, the stained sections were dehydrated with 70%, 80%, 90%, or 100% ethanol […].
In order to investigate whether PLA2 alleviated HFD-induced hepatic steatosis and kidney inflammation, liver and kidney tissues from the mice were H&E stained.
Next, the glomerular diameter indicating an early indicator of diabetic nephropathy caused by kidney damage was investigated.

[6] = system: HFD-induced metabolic dysfunction; assay: Serum/plasma levels of liver, kidney and metabolic markers by group; assay type: in vivo, mice
Experimental: The effects of bvPLA2 on liver and kidney functions were investigated.
More specifically, serum levels of alanine aminotransferase (ALT), aminotransferase (AST), blood urea nitrogen (BUN), and […] (Crea) were measured for each group.
In order to investigate the effect of bvPLA2 on metabolic syndrome, the triglyceride (TG), glucose (GLU), high-density lipoprotein cholesterol (HDL-C), and low-density lipoprotein cholesterol (LDL-C) levels were analyzed for each group.
In addition, plasma insulin and leptin levels were analyzed for each group.

[7] = system: pro-inflammatory macrophages in WAT; assay: H&E histological examination of macrophage infiltration in WAT; assay type: in vivo, mice; conditions: bvPLA2-treated HFD+PLA2 group vs HFD group
Experimental: as §2
Since obesity is characterized by the localization of crown-like structures (CLS), which are formed by pro-inflammatory macrophages surrounding dead adipocytes in AT28, H&E histological examination was performed to investigate whether bvPLA2 inhibited the macrophage infiltration in WAT.

[8] = system: white adipose tissue (WAT); assay: Quantitative real-time PCR of M1/M2 markers and adipogenic factors in white adipose tissue; assay type: in vivo, mice
Experimental: Total RNA was isolated from white adipose tissue (WAT) samples by using an easy-BLUE RNA extraction kit (iNtRON Biotechnology, Korea), and cDNA was synthesized using Cyclescript reverse transcriptase (Bioneer, Korea). The synthesized cDNA was subjected to quantitative real-time PCR (95° C. for 15 sec, 55° C. for 10 sec, and 72° C. for 10 sec) with SensiFAST SYBR no-Rox kit (Bioline, Korea), and each reaction was performed in triplicate. The primer sequences for the experiment were as follows:
The changes in macrophage phenotypes were analyzed by quantitative real-time PCR analysis.
More specifically, the expressions of TNF-α, IL-1β, and IL-12a were measured to investigate the effect of bvPLA2 on M1-related markers.
In addition, the expressions of the M2-related markers IL-4, CD206, and Ym1 were measured.
In addition, the expressions of PPARγ, C/EBPα, and UCP-1, which are markers related with lipid accumulation and adipogenesis, were measured.

[9] = bvPLA2-treated HFD group vs HFD group
[10] = serum, HFD+PLA2 group vs HFD group
[11] = M1-related marker, HFD+PLA2 group vs HFD group
[12] = M2-related marker, HFD-PLA2 group vs HFD group
[13] = lipid accumulation/adipogenesis marker, HFD+PLA2 group vs HFD group

## mellitin [reference compound]
[1]
  body weight change: increase in body weight

## phospholipase A2 [bvPLA2]
[2]; HFD+PLA2 group vs HFD group
  epididymal WAT weight: greatly reduced
  inguinal WAT weight: greatly reduced
[2]; HFD+PLA2 group vs HFD group without PLA2, 0.5 mg/kg intraperitoneally from week 5
  body weight: significant reduction in body weight
[2]; all groups (ND, HFD, with or without PLA2)
  food uptake: no food uptake change was observed
[3]
  adipose tissue weight: no significant changes
  body weight: no significant changes
[4]; IgG+PLA2 obesity-induced group vs IgG-only obesity-induced group
  body weight: significantly reduced
[4]; PC61+PLA2 group vs PC61-treated group
  body weight: markedly reduced
[5]; HFD+PLA2 group
  kidney hypertrophy (increased glomerular diameter): no kidney hypertrophy
[5]; ND+PLA2 group
  kidney hypertrophy (increased glomerular diameter): no kidney hypertrophy
  size and weight of the liver (lipid droplet accumulation and hepatomegaly): no influence was observed
[5]; [9]
  size and weight of the liver (lipid droplet accumulation and hepatomegaly): attenuated
[6]; HFD+PLA2 group vs HFD group
  plasma insulin level: significantly reduced
  plasma leptin level: significantly reduced
[6]; [9]
  serum ALT level: reduced
  serum AST level: reduced
  serum Crea level: reduced
[6]; [10]
  GLU level: significantly reduced
  HDL-C level: significantly reduced
  LDL-C level: significantly reduced
  TG level: significantly reduced
[7]
  CLS formation in AT: reduced
  macrophage infiltration in AT: reduced
[8]; HFD+PLA2 group vs HFD group
  UCP-1 expression: significantly increased
[8]; [11]
  IL-1β expression: inhibited to levels similar to those in ND
  IL-12a expression: inhibited to levels similar to those in ND
  TNF-α expression: inhibited to levels similar to those in ND
[8]; [12]
  CD206 expression: significantly increased
  IL-4 expression: significantly increased
[8]; [13]
  C/EBPα expression: inhibited
  PPARγ expression: inhibited
[1]
  body weight change: decrease in body weight
